Experimental data published in patent US20160090556A1, “PRODUCTS COMPRISING MALODOR REDUCTION MATERIALS” (The Procter & Gamble Company, priority 2014, published 2016).
Read-outs that look alike come from different tables or passages of the source.

Assay: Liquid dish neat product liquid-air partition coefficient
Assay type: physicochemical
[1] = class code letter within Comment Code

Structure (SMILES)	Comment Code: Log of liquid dish neat product liquid-air partition coefficient (code letters K, L)	Log of liquid dish neat product liquid-air partition coefficient (Comment Code K/L) [1]	Log of liquid dish neat product liquid-air partition coefficient (Comment Code K/L)	further results
O=COCCc1ccccc1 [Material 956]	K (Log of liquid dish neat product liquid-air partition coefficient greater than or equal to −7)	–	–	–
CCCC(=O)OC1CC2CC1C1CC=CC21 (stereo not drawn) [Material 484]	K (Log of liquid dish neat product liquid-air partition coefficient greater than or equal to −7)	K (Log of liquid dish neat product liquid-air partition coefficient greater than or equal to −7)	–	–
C=CCOC(=O)CCC1CCCCC1 [Material 746]	–	–	K (Log of liquid dish neat product liquid-air partition coefficient greater than or equal to −7)	–
CC=Cc1ccc(OC)c(OC)c1 [Material 108]	–	K (Log of liquid dish neat product liquid-air partition coefficient greater than or equal to −7)	–	–
O=C/C=C/c1ccccc1 [Material 554]	K (Log of liquid dish neat product liquid-air partition coefficient greater than or equal to −7)	–	–	–
C=CCCCCCCCCCO [Material 870]	–	–	K (Log of liquid dish neat product liquid-air partition coefficient greater than or equal to −7)	–
CCC(C)(C)C1CCC(O)CC1 (stereo not drawn) [Material 995]	K (Log of liquid dish neat product liquid-air partition coefficient greater than or equal to −7)	–	–	–
CC1OCC(c2ccccc2)O1 (stereo not drawn) [Material 190]	–	K (Log of liquid dish neat product liquid-air partition coefficient greater than or equal to −7)	–	–
CC1=CC[C@@H]2[C@@]3(C)CCCC(C)(C)[C@@H]3CC[C@@]2(C)O1 [Material 1029]	K (Log of liquid dish neat product liquid-air partition coefficient greater than or equal to −7)	–	K (Log of liquid dish neat product liquid-air partition coefficient greater than or equal to −7)	–
CCCCCCCCCC(OCC)OCC [Material 473]	–	K (Log of liquid dish neat product liquid-air partition coefficient greater than or equal to −7)	–	–
CC(=O)OC(C)CCC=C(C)CCC=C(C)C (racemic) [Material 881]	–	–	K (Log of liquid dish neat product liquid-air partition coefficient greater than or equal to −7)	–
C[C@@H]1CC[C@H]2[C@@H]1[C@H]1[C@@H](CC[C@]2(C)O)C1(C)C [Material 1140]	K (Log of liquid dish neat product liquid-air partition coefficient greater than or equal to −7)	–	–	Comment Code: Log of liquid dish neat product liquid-air partition coefficient (codes K/L of the Comment Code, Table 1): K (Log of liquid dish neat product liquid-air partition coefficient greater than or equal to −7)
CC(O)C(C)Cc1ccccc1 (stereo not drawn) [Material 82]	–	K (Log of liquid dish neat product liquid-air partition coefficient greater than or equal to −7)	–	–
C=CC1(C)CCC(C(C)(C)O)O1 (stereo not drawn) [Material 155]	–	K (Log of liquid dish neat product liquid-air partition coefficient greater than or equal to −7)	–	–
CC(C)=CCC/C(C)=C\COC=O [Material 59]	K (Log of liquid dish neat product liquid-air partition coefficient greater than or equal to −7)	–	–	–
C=CC(=C)CCC=C(C)CCC=C(C)C [Material 628]	–	–	K (Log of liquid dish neat product liquid-air partition coefficient greater than or equal to −7)	–
C=C(C)[C@@H]1CCC2=CCC[C@@H](C)[C@]2(C)C1 [Material 1105]	–	–	K (Log of liquid dish neat product liquid-air partition coefficient greater than or equal to −7)	–

Structure (SMILES)	Comment Code: Log of liquid dish neat product liquid-air partition coefficient (code letters K, L)	Log of liquid dish neat product liquid-air partition coefficient (Comment Code K/L) [1]	Log of liquid dish neat product liquid-air partition coefficient (Comment Code K/L)	further results
CC1/C=C/CCCCCCCCCCC(=O)C1 (stereo not drawn) [Material 80]	–	K (Log of liquid dish neat product liquid-air partition coefficient greater than or equal to −7)	–	–
CNC(=O)C(C)(C(C)C)C(C)C [Material 846]	K (Log of liquid dish neat product liquid-air partition coefficient greater than or equal to −7)	–	–	–
COC1CC2CC1C1CC(C=O)CC21 (stereo not drawn) [Material 1026]	–	–	K (Log of liquid dish neat product liquid-air partition coefficient greater than or equal to −7)	–
C=CCOC(=O)COCCC(C)C [Material 748]	–	–	K (Log of liquid dish neat product liquid-air partition coefficient greater than or equal to −7)	–
CCC(=O)CCC1C(C)=CCCC1(C)C (stereo not drawn) [Material 293]	–	K (Log of liquid dish neat product liquid-air partition coefficient greater than or equal to −7)	–	–
C=C1[C@H]2CC[C@H](CO)[C@@]23CC[C@H](C3)C1(C)C [Material 183]	K (Log of liquid dish neat product liquid-air partition coefficient greater than or equal to −7)	K (Log of liquid dish neat product liquid-air partition coefficient greater than or equal to −7)	–	–
CCCCCCCCCCCC#N [Material 498]	–	K (Log of liquid dish neat product liquid-air partition coefficient greater than or equal to −7)	–	–
COC1CC2CC1C1CC(C=O)CC21 (stereo not drawn) [Material 1027]	K (Log of liquid dish neat product liquid-air partition coefficient greater than or equal to −7)	–	K (Log of liquid dish neat product liquid-air partition coefficient greater than or equal to −7)	–
CCCCCCC(=O)OCc1ccco1 [Material 339]	–	K (Log of liquid dish neat product liquid-air partition coefficient greater than or equal to −7)	–	–
CC(O)CCc1ccccc1 (stereo not drawn) [Material 98]	–	K (Log of liquid dish neat product liquid-air partition coefficient greater than or equal to −7)	–	–
CCCCCCCCCC(=O)OCC [Material 397]	–	K (Log of liquid dish neat product liquid-air partition coefficient greater than or equal to −7)	–	–
c1ccc(CCc2ccccc2)cc1 [Material 457]	–	K (Log of liquid dish neat product liquid-air partition coefficient greater than or equal to −7)	–	–
CCC=CCCC=CCO [Material 865]	–	–	K (Log of liquid dish neat product liquid-air partition coefficient greater than or equal to −7)	–
C=CCCCCCCCCC(=O)OCCC(C)C [Material 234]	–	K (Log of liquid dish neat product liquid-air partition coefficient greater than or equal to −7)	–	–
CCOCOC1CCCCCCCCCCC1 [Material 607]	–	–	K (Log of liquid dish neat product liquid-air partition coefficient greater than or equal to −7)	–
C=C1C2CCC(C2)C1(C)CCC=C(C)CO (stereo not drawn) [Material 616]	K (Log of liquid dish neat product liquid-air partition coefficient greater than or equal to −7)	–	K (Log of liquid dish neat product liquid-air partition coefficient greater than or equal to −7)	–
